# Results taken from patent publication US9096591B2, “Tetracyclic compounds” (Medivation Technologies, Inc., priority 2007, dated 2015).
# Like-named read-outs stand apart in the source and are kept apart here.
# Columns and labels:
# [1] = biological target: T1, human recombinant histamine H1 receptor (Homo sapiens, UniProt P35367); assay: Histamine H1 radioligand binding ([3H]Pyrilamine); settings: for inhibition at 0.1 µM: 0.1 μM compound
# T1 construct: expressed in transfected cells; host or cells: CHO cells
# T1 sequence (P35367 whole entry): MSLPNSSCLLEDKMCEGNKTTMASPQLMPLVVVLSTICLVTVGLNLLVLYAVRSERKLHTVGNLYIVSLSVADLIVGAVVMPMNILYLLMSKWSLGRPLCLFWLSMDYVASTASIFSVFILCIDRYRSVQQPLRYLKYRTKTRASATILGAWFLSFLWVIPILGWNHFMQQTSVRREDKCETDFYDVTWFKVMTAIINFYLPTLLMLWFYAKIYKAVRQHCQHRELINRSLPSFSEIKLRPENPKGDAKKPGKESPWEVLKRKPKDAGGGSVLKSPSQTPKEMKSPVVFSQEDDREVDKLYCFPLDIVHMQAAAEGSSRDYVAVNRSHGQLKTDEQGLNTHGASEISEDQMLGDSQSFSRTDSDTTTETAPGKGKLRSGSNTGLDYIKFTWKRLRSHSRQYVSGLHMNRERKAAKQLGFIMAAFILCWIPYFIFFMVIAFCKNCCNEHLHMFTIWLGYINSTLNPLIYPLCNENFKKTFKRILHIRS
# Description: To evaluate in radioligand binding assays the activity of compounds of the invention, human recombinant histamine H1 receptor expressed in Chinese hamster ovary (CHO) cells (De Backer M D et al. Biochem. Biophys. Res Comm. 197(3):1601, 1993) in a modified Tris-HCl buffer (50 mM Tris-HCl, pH 7.4, 2 mM MgCl2, 100 mM NaCl, 250 mM Sucrose) were used. […] Non-specific binding was estimated in the presence of 1 μM pyrilamine. Receptor proteins were filtered and washed, the filters were then counted to determine [^3H]pyrilamine specifically bound. […] Biochemical assay results are presented as the percent inhibition of specific binding in Table 5.
# To evaluate in radioligand binding assays the activity of compounds of the invention, human recombinant histamine H1 receptor expressed in Chinese hamster ovary (CHO) cells (De Backer, M. D. et al., Biochem. Biophys. Res. Comm. 197(3):1601, 1993) in a modified Tris-HCl buffer (50 mM Tris-HCl, pH 7.4, 2 mM MgCl2, 100 mM NaCl, 250 mM Sucrose) was used. […] Non-specific binding was estimated in the presence of 1 μM pyrilamine. Receptor proteins were filtered and washed, the filters were then counted to determine [^3H]Pyrilamine specifically bound. Compounds were screened at 1 μM, using 1% DMSO as vehicle. Biochemical assay results are presented as the percent inhibition of specific binding in Table 6.
# [2] = biological target: T2, human recombinant histamine H2 receptor (Homo sapiens, UniProt P25021); assay: Histamine H2 radioligand binding ([125I]Aminopotentidine)
# T2 construct: expressed in transfected cells; host or cells: CHO-K1 cells
# T2 sequence (P25021 whole entry): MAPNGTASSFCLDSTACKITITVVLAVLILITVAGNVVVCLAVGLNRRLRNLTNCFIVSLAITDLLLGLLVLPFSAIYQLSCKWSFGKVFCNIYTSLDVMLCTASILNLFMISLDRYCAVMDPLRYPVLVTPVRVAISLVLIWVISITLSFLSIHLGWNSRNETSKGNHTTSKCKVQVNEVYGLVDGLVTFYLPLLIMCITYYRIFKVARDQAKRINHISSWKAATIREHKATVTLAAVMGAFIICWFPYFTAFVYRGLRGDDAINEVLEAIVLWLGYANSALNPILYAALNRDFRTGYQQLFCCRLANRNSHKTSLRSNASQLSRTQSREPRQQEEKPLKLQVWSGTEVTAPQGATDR
# Description: Non-specific binding was estimated in the presence of 3 μM Tiotidine. […] Biochemical assay results are presented as the percent inhibition of specific binding in Table 5.
# Non-specific binding was estimated in the presence of 3 μM Tiotidine. […] Compounds were screened at 1 μM, using 1% DMSO as vehicle. Biochemical assay results are presented as the percent inhibition of specific binding in Table 6.
# mice = assay: recognition test of new location of a known object (spatial memory); assay type: in vivo
# [3] = system: synaptosomes of cortex of rat brain; assay: Glutamate-induced 45Ca2+ uptake into synaptosomes; assay type: biochemical, Wistar rats; settings: for % Ca of control (control-100%), glutamate-induced 45Ca2+ uptake into synaptosomes: rat cortex synaptosomes
# Description: Synaptosomes were obtained from cerebral cortex of newborn (9-10 days) Wistar rats using standard Hajos method. The brain was homogenized with 10 volumes of cooled 0.32 M sucrose at 900 rpm. The homogenate was centrifuged at 1500 g for 10 min. and the resulted supernatant was centrifuged at 10000 g for 20 min. The radioactive label was accumulated by suspension of the synaptosomal P2-fraction in the incubation buffer A having the following composition: 132 mM NaCl, 5 mM KCl, 5 mM HEPES, 10 mM glucose, pH 7.4 (protein concentration of approximately 1.5-2 mg/ml). The mixture was further incubated for 5 min with 200 μM glutamate at 37° C. and then ^45Ca^2+ uptake was stopped by filtration through GF/B filters (Whatman, England) followed by three washes with cold buffer B (145 mM KCl, 10 mM Tris, 5.4 mM Trilon B, pH 7.4). The radioactivity probes were analyzed by fluid scintillation beta-analyzer (TriCarb, Perkin Elmer). All tests were performed in three parallel trials in 2-3 independent experiments. The amount of ^45Ca^2+ uptake was estimated by calculating the difference of radioactive label during the stimulation with glutamate and without the stimulation with agonist.
# Specific ^45Ca^2+ uptake was estimated using the following equation: K(43/21)=[(Ca4−Ca3)/(Ca2−Ca1)]100%, where
# Ca1—^45Ca^2+ uptake for the Control (without glutamate and the compound tested),
# […] glutamate-induced ^45Ca^2+ uptake (glutamate only),
# Ca3—^45Ca^2+ uptake in the presence of the compound tested (without glutamate),
# Ca4—^45Ca^2+ uptake in the presence of glutamate and the testing compound.
# Statistical analysis of the results was performed using Student's t-test.
# [4] = […] [3H]Pyrilamine, read-out: Histamine Binding H1, percent inhibition of specific binding
# [5] = 1 μM compound, […] [3H]Pyrilamine, read-out: Histamine Binding H1, percent inhibition of specific binding
# [6] = 1 μM compound, 0.1 nM [125I]Aminopotentidine, read-out: Histamine Binding H2, percent inhibition of specific binding
structure (smiles),measurement,setting,value
FC(F)(F)c1ccc2c(c1)c1c(n2CCc2noc(-c3ccccc3)n2)CCN(C2CC2)C1 [Compound 222],inhibition at 0.01 µM,"[1]; 10 nM (0.01 μM) compound, […] [3H]Pyrilamine, read-out: Histamine Binding H1, percent inhibition of specific binding",85%
same,inhibition at 0.1 µM,[1]; [4],101%
same,inhibition at 1 µM,[1]; [5],103%
same,inhibition at 0.1 µM,"[2]; 0.1 μM compound, 0.1 nM [125I]Aminopotentidine, read-out: Histamine Binding H2, percent inhibition of specific binding",89%
same,inhibition at 1 µM,[2]; [6],98%
CN1CCc2c(c3cc(F)ccc3n2CCc2noc(-c3ccccc3)n2)C1 [Compound C4-7],Influence on memory in the test recognition new localization of known object,mice; Dose of Compound 0.05 mg/kg,−
same,Influence on memory in the test recognition new localization of known object,mice; Dose of Compound 0.1 mg/kg,+
same,Influence on memory in the test recognition new localization of known object,mice; Dose of Compound 0.5 mg/kg,−
same,Influence on memory in the test recognition new localization of known object,mice; Dose of Compound 1.0 mg/kg,−
same,effect of the dose on exploration time / memory (in words),"mice; mice, dose 0.05 mg/kg",not effective
same,"time exploring the object in a new location, % of the total time","mice; mice, dose 0.1 mg/kg",63.4±10.4%
same,"time exploring the object in the known position, % of the total time","mice; mice, dose 0.1 mg/kg",36.6±10.4%
same,effect of the dose on exploration time / memory (in words),"mice; mice, dose 0.5 mg/kg",not effective
same,effect of the dose on exploration time / memory (in words),"mice; mice, dose 1 mg/kg",not effective
same,overall effect on memory (in words),"mice; mice, doses 0.05-1 mg/kg",stimulated memory
same,concentration at which glutamate-induced 45Ca2+ uptake into synaptosomes was not affected,[3],0.1 to 10 µM
same,"glutamate-induced 45Ca2+ uptake into synaptosomes of rat cortex, % of control",[3]; 50-100 μM,~128%
same,"% Ca of control (control-100%), glutamate-induced 45Ca2+ uptake into synaptosomes",[3]; compound 0.1 μM,97.2 ± 5.5%
same,"% Ca of control (control-100%), glutamate-induced 45Ca2+ uptake into synaptosomes",[3]; compound 0.5 μM,87.6 ± 3.9%
same,"% Ca of control (control-100%), glutamate-induced 45Ca2+ uptake into synaptosomes",[3]; compound 1 μM,105.3 ± 2.8%
same,"% Ca of control (control-100%), glutamate-induced 45Ca2+ uptake into synaptosomes",[3]; compound 5 μM,109.2 ± 10%
same,"% Ca of control (control-100%), glutamate-induced 45Ca2+ uptake into synaptosomes",[3]; compound 10 μM,101.6 ± 7.8%
same,"% Ca of control (control-100%), glutamate-induced 45Ca2+ uptake into synaptosomes",[3]; compound 50 μM,128.3 ± 8.1%
same,"% Ca of control (control-100%), glutamate-induced 45Ca2+ uptake into synaptosomes",[3]; compound 100 μM,123.6 ± 4.9%
CN1CCc2c(c3cc(Cl)ccc3n2CCc2n[nH]c(=S)n2C)C1(C)C [Compound 218],"Histamine Binding H1, percent inhibition of specific binding","[1]; 1 μM compound, […] [3H]Pyrilamine",80%
same,inhibition at 1 µM,[2]; [6],34%
CN1Cc2c(n(CCc3n[nH]c(=S)n3C)c3ccc(C(F)(F)F)cc23)CC1(C)C [Compound 219],inhibition at 1 µM,[1]; [5],89%
same,inhibition at 1 µM,[2]; [6],71%
CCOC(=O)N1CCc2c(c3cc(C)ccc3n2CCc2cccnc2)C1 [Compound 217],inhibition at 1 µM,[1]; [5],-4%
same,inhibition at 1 µM,[2]; [6],13%
Cc1ccc2c(c1)c1c(n2CCc2ccc(C(=O)O)nc2)CCN(C)C1=O [Compound 241],inhibition at 1 µM,"[1]; read-out: Histamine Binding H1, percent inhibition of specific binding",19%
same,inhibition at 1 µM,"[2]; read-out: Histamine Binding H2, percent inhibition of specific binding",11%
CCN1CCc2c(c3cc(C)ccc3n2CCc2ccccc2)C1 [Compound 37],inhibition at 0.03 µM,"[1]; 0.03 μM compound, […] [3H]Pyrilamine, read-out: Histamine Binding H1, percent inhibition of specific binding",59%
same,inhibition at 0.1 µM,[1]; [4],78%
same,inhibition at 1 µM,[1]; [5],101%
same,inhibition at 1 µM,"[1]; percent inhibition of specific binding, screened at 1 μM, read-out: Inhibition of ligand binding, Hist. H1",101%
same,inhibition at 0.3 µM,"[2]; 0.3 μM compound, 0.1 nM [125I]Aminopotentidine, read-out: Histamine Binding H2, percent inhibition of specific binding",22%
same,inhibition at 1 µM,[2]; [6],53%
same,inhibition at 1 µM,"[2]; percent inhibition of specific binding, screened at 1 μM, read-out: Inhibition of ligand binding, Hist. H2",53%
"Cc1ccc2c(c1)c1c(n2CCC(=O)N2CCC(NC(=O)OC(C)(C)C)CC2)CCN(C)C1 [Compound 226, tert-butyl 1-(3-(1,2,3,4-tetrahydro-2,8-dimethylpyrido[4,3-b]indol-5-yl)propanoyl)piperidin-4-ylcarbamate]",inhibition at 1 µM,[1]; [5],87%
same,inhibition at 1 µM,[2]; [6],96%
